According to ChEMBL document CHEMBL1201862, “PubChem BioAssay data set” (2004):
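A five-concentration, 48-hour dose response in 96-well plates underlies each endpoint, interpolated linearly between surrounding concentrations. The concentration for 50% growth inhibition is given as GI50.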 Calls of active or inactive are those of the source. Cut-off read from the data, not from the text of the source: active = GI50 up to about 1.1 µM and inactive = higher.

How the values were obtained:
Test in all cases: NCI tumour cell line growth inhibition, 48 h
[1] = tested on: UACC-62
[2] = tested on: MDA-N
[3] = tested on: SN12C
[4] = tested on: HCC 2998
[5] = tested on: COLO 205
[6] = tested on: CCRF-CEM
[7] = tested on: SK-MEL-5
[8] = tested on: SF-295
[9] = tested on: KM12
[10] = tested on: NCI-H226
[11] = tested on: LOX IMVI
[12] = tested on: OVCAR-8
[13] = tested on: ACHN
[14] = tested on: U-251
[15] = tested on: BT-549
[16] = tested on: MDA-MB-435
[17] = tested on: 786-0
[18] = tested on: NCI-H460
[19] = tested on: SK-MEL-28
[20] = tested on: NCI-H522
[21] = tested on: SNB-19
[22] = tested on: EKVX
[23] = tested on: UO-31
[24] = tested on: OVCAR-4
[25] = tested on: HL-60
[26] = tested on: Hs-578T
[27] = tested on: SK-OV-3
[28] = tested on: SW-620
[29] = tested on: RPMI-8226
[30] = tested on: SR
[31] = tested on: NCI-H23
[32] = tested on: OVCAR-3
[33] = tested on: SF-539
[34] = tested on: OVCAR-5
[35] = tested on: K562
[36] = tested on: A549
[37] = tested on: MDA-MB-231
[38] = tested on: TK-10
[39] = tested on: SK-MEL-2
[40] = tested on: IGROV-1
[41] = tested on: MOLT-4
[42] = tested on: DU-145
[43] = tested on: SF-268
[44] = tested on: HCT-15
[45] = tested on: T47D
[46] = tested on: HCT-116
[47] = tested on: M14
[48] = tested on: HT-29
[49] = tested on: SNB-75
[50] = tested on: CAKI-1
[51] = tested on: PC-3
[52] = tested on: UACC-257
[53] = tested on: MCF7
[54] = tested on: A498
[55] = tested on: HOP-62
[56] = tested on: Malme-3M
[57] = tested on: HOP-92
[58] = tested on: RXF 393

Measured: GI50

COC(=O)c1c2c(cc3c1CC1(Cc4cc5c(cc4C1=O)CCC5)C3)CCC2 (stereo unspecified)
42.7 µM: [44]
inactive: [1] 39.1 µM | [2] 20.4 µM | [3] > 100 µM | [4] 63 µM | [5] 79.3 µM | [6] 11 µM | [7] 10.5 µM | [8] 21.5 µM | [9] 38.7 µM | [10] 60.3 µM | [11] 7.18 µM | [12] 27.6 µM | [13] 86.1 µM | [14] 83.9 µM | [15] 64.6 µM | [16] 28.1 µM | [17] 35.4 µM | [18] 86.1 µM | [19] 63 µM | [20] 19.9 µM | [21] > 100 µM | [22] 56.1 µM | [23] > 100 µM | [24] 34.3 µM | [25] > 100 µM | [26] 16.4 µM | [27] 21.9 µM | [28] 20.8 µM | [29] 6.79 µM | [30] > 10 µM | [31] 40.7 µM | [32] 72.9 µM | [33] 97.7 µM | [34] > 100 µM | [35] 7.94 µM | [36] 56.6 µM | [37] > 100 µM | [38] 22.8 µM | [39] > 100 µM | [40] 34.3 µM | [41] 5.47 µM | [42] > 100 µM | [43] 85.9 µM | [45] 59 µM | [46] 13.3 µM | [47] 90.4 µM | [48] 37.4 µM | [49] 14.3 µM | [50] 21 µM | [51] 6.68 µM | [52] 17.5 µM | [53] 24.7 µM | [54] 34.4 µM | [55] 34.3 µM | [56] 32.9 µM

CN1N(c2ccccc2)C(=O)C2=NC=C(C(=O)c3ccccc3)C(=N)C21C (stereo unspecified)
> 100 µM: [44]
inactive: [1] > 100 µM | [2] > 100 µM | [3] > 100 µM | [4] > 100 µM | [5] > 100 µM | [6] > 100 µM | [7] > 100 µM | [8] > 100 µM | [10] > 100 µM | [11] > 100 µM | [13] > 100 µM | [14] > 100 µM | [15] > 100 µM | [16] > 100 µM | [17] > 100 µM | [18] > 100 µM | [19] > 100 µM | [20] > 100 µM | [21] > 100 µM | [22] > 100 µM | [23] > 100 µM | [24] > 100 µM | [25] > 100 µM | [26] > 100 µM | [27] > 100 µM | [28] > 100 µM | [29] > 100 µM | [57] > 100 µM | [30] > 100 µM | [31] > 100 µM | [32] > 100 µM | [33] > 100 µM | [34] > 100 µM | [35] > 100 µM | [36] > 100 µM | [37] > 100 µM | [38] > 100 µM | [39] > 100 µM | [40] > 100 µM | [58] > 100 µM | [41] > 100 µM | [42] > 100 µM | [43] > 100 µM | [45] > 100 µM | [46] > 100 µM | [47] > 100 µM | [48] > 100 µM | [50] > 100 µM | [51] > 100 µM | [52] > 100 µM | [53] > 100 µM | [54] > 100 µM | [55] > 100 µM | [56] > 100 µM
